Data on 18 compounds can be found in patent publication US20250228239A1, “MOLECULES HAVING PESTICIDAL UTILITY, AND INTERMEDIATES, COMPOSITIONS, AND PROCESSES, RELATED THERETO” (priority 2024, published 2025).

Holding throughout (assay type): in vivo
Assay [1] deals with Beet Armyworm (Spodoptera exigua, LAPHEG). The experiment in a line: Bioassays on Beet Armyworm (BAW), 128-well diet tray assay. Conditions: Spodoptera exigua. A digest of the protocol: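 Test molecule was dissolved in 90:10 acetone-water and applied at 50 μg/cm^2 onto artificial diet in eight wells, then dried. Second instar larvae, one to five per well, were added, and trays were kept vented at 25° C. with a 14:10 photoperiod for five to seven days before mortality was recorded.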

Assay [2] relates to Cabbage Looper (Trichoplusia ni, TRIPNI). As to the kind of experiment: Bioassays on Cabbage Looper (CL), 128-well diet tray assay. Conditions: Trichoplusia ni. A digest of the protocol: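 Percent mortality, averaged across eight replicate wells, after second-instar larvae (1–5 per well) fed for five to seven days on diet dosed at 50 μg/cm^2. Compound was applied in acetone-water 90:10 and dried; trays kept vented at 25° C under 14:10 photoperiod.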

Assay [3] has as its system Yellow Fever Mosquito (Aedes aegypti, AEDSAE). To be noted: for YFM rating: Table ABC / ABC-DP rating. A digest of the protocol: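 Rating-scale grades reflect larval mortality scored per well after 3 days at room temperature under non-evaporative lids. Larvae (~1 day old, hatched overnight in liver-powder water) were added to six daughter plates per compound, prepared from a 4000 ppm DMSO stock diluted in 90:10 water/acetone.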

Setting [4] is: Table ABC: Biological Results, species BAW, read-out: BAW.
Setting [5] is: Table ABC: Biological Results, species CL, read-out: CL.
Where [6] appears, read: Table ABC: Biological Results, species YFM.
Where [7] appears, read: Beet Armyworm, Table ABC / ABC-DP rating, read-out: BAW rating.
[8] abbreviates: Cabbage Looper, Table ABC / ABC-DP rating, read-out: CL rating.
[9] abbreviates: Beet Armyworm, rating class, read-out: BAW.
[10] abbreviates: Cabbage Looper, rating class, read-out: CL.
Where [11] appears, read: Yellow Fever Mosquito, rating class.

Where two headings read alike, the source gives them in different places.

On to `Cc1c(F)cc(NC(=O)[C@H]2[C@H](c3ccc(F)c(Cl)c3)C2(Cl)Cl)cc1C(=O)Nc1ccc(F)cc1F` (relative stereo) [F1279, trans-5-(2,2-Dichloro-3-(3-chloro-4-fluorophenyl)cyclopropane-1-carboxamido)-N-(2,4-difluorophenyl)-3-fluoro-2-methylbenzamide], for which the pest or weed control at 50 µg/cm2 in assay [1] (setting [4]) and in assay [2] (setting [5]) was 50 to 100% each time. The YFM entry in assay [3] (setting [6]) is “B (More than 0 – Less than 80)”.
As to `O=C(Nc1ccc(F)cc1F)c1cc(NC(=O)C2C(c3cc(Br)cc(S(F)(F)(F)(F)F)c3)C2(Cl)Cl)ccc1Cl` (stereo not drawn) [F1032, cis-5-(3-(3-Bromo-5-(pentafluoro-λ^6-sulfanyl)phenyl)-2,2-dichiorocyclopropane-1-carboxamido)-2-chloro-N-(2,4-difluorophenyl)benzamide], the pest or weed control at 50 µg/cm2 in assay [1] (setting [4]) and in assay [2] (setting [5]) was 50 to 100% in each case. The YFM result in assay [3] (setting [6]) was “A (80–100)”.
Take `O=C(Nc1ccccc1)c1cc(NC(=O)[C@H]2[C@H](c3ccc(F)c(Cl)c3)C2(Cl)Cl)cc(C(F)(F)F)c1Cl` (relative stereo) [F1212, trans-2-Chloro-5-(2,2-dichloro-3-(3-chloro-4-fluorophenyl)cyclopropane-1-carboxamido)-N-phenyl-3-(trifluoromethyl)benzamide]: the pest or weed control at 50 µg/cm2 in assay [1] (setting [4]) and in assay [2] (setting [5]) was 50 to 100% throughout. The YFM result in assay [3] (setting [6]) is “A (80–100)”.
In the case of `Nc1c(F)ccc(NC(=O)c2cc(NC(=O)[C@H]3[C@H](c4cc(Cl)cc(C(F)(F)F)c4)C3(Cl)Cl)ccc2Cl)c1F` (relative stereo) [F1127, trans-N-(3-Amino-2,4-difluorophenyl)-2-chloro-5-(2,2-dichloro-3-(3-chloro-5-(trifluoromethyl)phenyl)cyclopropane-1-carboxamido)benzamide], the pest or weed control at 50 µg/cm2 in assay [1] (setting [4]) and in assay [2] (setting [5]) was 50 to 100% each time. The YFM entry in assay [3] (setting [6]) is “A (80–100)”.
Take `O=C(COC(F)F)Nc1c(F)ccc(NC(=O)c2cc(NC(=O)[C@H]3[C@H](c4ccc(F)c(C(F)(F)F)c4)C3(Cl)Cl)ccc2Cl)c1F` [F1790, 2-Chloro-5-((1R,3R)-2,2-dichloro-3-(4-fluoro-3-(trifluoromethyl)phenyl)cyclopropane-1-carboxamido)-N-(3-(2-(difluoromethoxy)acetamido)-2,4-difluorophenyl)benzamide]: the pest or weed control at 50 µg/cm2 in assay [1] (setting [7]) and in assay [2] (setting [8]) was 50 to 100% in each case. Besides, in assay [3] (Yellow Fever Mosquito), the YFM rating result was “A (80–100)”.
Turning to `CC(=O)Nc1ccc(F)c(NC(=O)c2cc(NC(=O)[C@H]3[C@H](c4ccc(F)c(C(F)(F)F)c4)C3(Cl)Cl)ccc2Cl)c1F` [F1454, N-(3-Acetamido-2,6-difluorophenyl)-2-chloro-5-((1R,3R)-2,2-dichloro-3-(4-fluoro-3-(trifluoromethyl)phenyl)cyclopropane-1-carboxamido)benzamide], the pest or weed control at 50 µg/cm2 in assay [1] (setting [9]) and in assay [2] (setting [10]) was 50 to 100% each time. Further, the YFM result in assay [3] (setting [11]) was “A (80–100)”.
As for `O=C(Nc1ccc(F)cc1)c1cc(NC(=O)[C@H]2[C@H](c3cc(Cl)cc(Cl)c3)C2(F)F)ccc1Cl` (relative stereo) [F1057, trans-2-Chloro-5-(3-(3,5-dichlorophenyl)-2,2-difluorocyclopropane-1-carboxamido)-N-(4-fluorophenyl)benzamide], the pest or weed control at 50 µg/cm2 in assay [1] (setting [4]) and in assay [2] (setting [5]) was 50 to 100% each time. In assay [3] (setting [6]), the YFM entry is given as “A (80–100)”.
Consider `O=C(Nc1ccc(F)cc1)c1c(F)ccc(NC(=O)[C@H]2[C@H](c3ccc(F)c(Cl)c3)C2(Cl)Cl)c1F` (relative stereo) [F1100, trans-3-(2,2-Dichloro-3-(3-chloro-4-fluorophenyl)cyclopropane-1-carboxamido)-2,6-difluoro-N-(4-fluorophenyl)benzamide], for which the pest or weed control at 50 µg/cm2 in assay [1] (setting [4]) and in assay [2] (setting [5]) was 50 to 100% each time. In assay [3] (setting [6]), the YFM result was “A (80–100)”.
Take `O=C(Nc1ccc(F)c(NC(=O)C(Cl)Cl)c1F)c1cc(NC(=O)[C@H]2[C@H](c3cc(Cl)c(Cl)c(Cl)c3)C2(Cl)Cl)ccc1Cl` [F1685, 2-Chloro-5-((1R,3R)-2,2-dichloro-3-(3,4,5-trichlorophenyl)cyclopropane-1-carboxamido)-N-(3-(2,2-dichloroacetamido)-2,4-difluorophenyl)benzamide]: the pest or weed control at 50 µg/cm2 in assay [1] (setting [9]) and in assay [2] (setting [10]) was 50 to 100% throughout. For the same compound, the YFM result in assay [3] (setting [11]) is reported as “A (80–100)”.
As to `CC1(C(=O)Nc2c(F)ccc(NC(=O)c3cc(NC(=O)[C@H]4[C@H](c5ccc(F)c(C(F)(F)F)c5)C4(Cl)Cl)ccc3Cl)c2F)CC1` [F1362, 2-Chloro-5-((1R,3R)-2,2-dichloro-3-(4-fluoro-3-(trifluoromethyl)phenyl)cyclopropane-1-carboxamido)-N-(2,4-difluoro-3-(1-methylcyclopropane-1-carboxamido)phenyl)benzamide], the pest or weed control at 50 µg/cm2 in assay [1] (setting [4]) and in assay [2] (setting [5]) was 50 to 100% each time. Besides, the YFM result in assay [3] (setting [6]) is “A (80–100)”.
Take `O=C(COC(F)(F)F)Nc1c(F)ccc(NC(=O)c2cc(NC(=O)[C@H]3[C@H](c4ccc(F)c(Br)c4)C3(Cl)Cl)ccc2Cl)c1F` [F1780, 5-((1R,3R)-3-(3-Bromo-4-fluorophenyl)-2,2-dichlorocyclopropane-1-carboxamido)-2-chloro-N-(2,4-difluoro-3-(2-(trifluoromethoxy)acetamido)phenyl)benzamide]: the pest or weed control at 50 µg/cm2 in assay [1] (setting [7]) and in assay [2] (setting [8]) was 50 to 100% in each case. The YFM rating result in assay [3] (Yellow Fever Mosquito) is recorded as “A (80–100)”.
Regarding `O=C(Nc1ccc(F)cc1F)c1cc(NC(=O)[C@H]2[C@H](c3ccc(F)c(C(F)(F)F)c3)C2(Cl)Cl)c(F)cc1Cl` [F1727, 2-Chloro-5-((1R,3R)-2,2-dichloro-3-(4-fluoro-3-(trifluoromethyl)phenyl)cyclopropane-1-carboxamido)-N-(2,4-difluorophenyl)-4-fluorobenzamide], the pest or weed control at 50 µg/cm2 in assay [1] (setting [9]) and in assay [2] (setting [10]) was 50 to 100% each time. For the same compound, the YFM result in assay [3] (setting [11]) was “A (80–100)”.
As for `O=C(COC(F)(F)F)Nc1c(F)ccc(NC(=O)c2cc(NC(=O)[C@H]3[C@H](c4ccc(F)c(Cl)c4)C3(Cl)Cl)ccc2Cl)c1F` [F1768, 2-Chloro-5-((1R,3R)-2,2-dichloro-3-(3-chloro-4-fluorophenyl)cyclopropane-1-carboxamido)-N-(2,4-difluoro-3-(2-(trifluoromethoxy)acetamido)phenyl)benzamide], the pest or weed control at 50 µg/cm2 in assay [1] (setting [7]) and in assay [2] (setting [8]) was 50 to 100% each time. In addition, the YFM rating entry in assay [3] (Yellow Fever Mosquito) was “A (80–100)”.
Turning to `O=C(NCC(F)(F)F)c1cc(NC(=O)[C@H]2[C@@H](c3cc(F)c(Cl)c(Cl)c3)C2(Cl)Cl)ccc1Cl` (relative stereo) [F2007, cis-2-Chloro-5-(2,2-dichloro-3-(3,4-dichloro-5-fluorophenyl)cyclopropane-1-carboxamido)-N-(2,2,2-trifluoroethyl)benzamide], the pest or weed control at 50 µg/cm2 in assay [1] (setting [7]) and in assay [2] (setting [8]) was 50 to 100% throughout. In assay [3] (Yellow Fever Mosquito), the YFM rating entry is reported as “A (80–100)”.
On to `O=C(Nc1ccc(F)cc1F)c1cc(NC(=O)[C@H]2[C@H](c3ccc(F)c(Cl)c3)C2(Cl)Cl)cc(C(F)(F)F)c1Cl` (relative stereo) [F1215, trans-2-Chloro-5-(2,2-dichloro-3-(3-chloro-4-fluorophenyl)cyclopropane-1-carboxamido)-N-(2,4-difluorophenyl)-3-(trifluoromethyl)benzamide], for which the pest or weed control at 50 µg/cm2 in assay [1] (setting [4]) and in assay [2] (setting [5]) was 50 to 100% in each case. Besides, the YFM entry in assay [3] (setting [6]) is recorded as “A (80–100)”.
In the case of `CN(NC(=O)c1cc(NC(=O)[C@H]2[C@H](c3cc(Cl)cc(Cl)c3)C2(Cl)Cl)ccc1Cl)C(=O)OC(C)(C)C` (relative stereo) [F2520, trans-tert-Butyl 2-(2-chloro-5-(2,2-dichloro-3-(3,5-dichlorophenyl)cyclopropane-1-carboxamido)benzoyl)-1-methylhydrazine-1-carboxylate], the pest or weed control at 50 µg/cm2 in assay [1] (setting [7]) and in assay [2] (setting [8]) was 50 to 100% throughout. For the same compound, in assay [3] (Yellow Fever Mosquito), the YFM rating result is “A (80–100)”.
Take `CCC(F)(F)CNC(=O)c1cc(NC(=O)[C@H]2[C@H](c3cc(Cl)cc(Cl)c3)C2(Cl)Cl)ccc1Cl` (relative stereo) [F2086, trans-2-Chloro-5-(2,2-dichloro-3-(3,5-dichlorophenyl)cyclopropane-1-carboxamido)-N-(2,2-difluorobutyl)benzamide]: the pest or weed control at 50 µg/cm2 in assay [1] (setting [7]) and in assay [2] (setting [8]) was 50 to 100% in each case. The YFM rating result in assay [3] (Yellow Fever Mosquito) is “A (80–100)”.
Turning to `O=C(NNc1ncccn1)c1cc(NC(=O)[C@H]2[C@H](c3cc(Cl)cc(Cl)c3)C2(Cl)Cl)ccc1Cl` (relative stereo) [F2508, trans-2,2-Dichloro-N-(4-chloro-3-(2-(pyrimidin-2-yl)hydrazine-1-carbonyl)phenyl)-3-(3,5-dichlorophenyl)cyclopropane-1-carboxamide], the pest or weed control at 50 µg/cm2 in assay [1] (setting [7]) and in assay [2] (setting [8]) was 50 to 100% each time. Besides, the YFM rating result in assay [3] (Yellow Fever Mosquito) is listed as “A (80–100)”.
